In patent US9073855B2, “BCL-2 selective apoptosis-inducing agents for the treatment of cancer and immune diseases” (AbbVie Inc., priority 2008, dated 2015):

How the values were obtained:
[1] = target: GST-Bcl-2 (Homo sapiens, UniProt P10415); experiment: TR-FRET binding assay, GST-Bcl-2 with F-Bak peptide probe; settings: for Ki: TR-FRET Binding Affinity
Procedure, shortened: (§1)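 Compounds were serially diluted in DMSO from a 50 μM starting solution (2× the starting concentration; 10% DMSO). Plates were incubated for 3 h at room temperature, and TR-FRET was read with 340/35 nm excitation and emission at 520/525 nm (F-Bak) and 495/510 nm (Tb antibody). Ki values were calculated using Wang's competitive-binding equation.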

[2] = target: GST-Bcl-XL (Homo sapiens, UniProt Q07817); experiment: TR-FRET binding assay, GST-Bcl-XL with F-Bak peptide probe; settings: TR-FRET Binding Affinity
GST-Bcl-XL, sequence (Q07817 whole entry): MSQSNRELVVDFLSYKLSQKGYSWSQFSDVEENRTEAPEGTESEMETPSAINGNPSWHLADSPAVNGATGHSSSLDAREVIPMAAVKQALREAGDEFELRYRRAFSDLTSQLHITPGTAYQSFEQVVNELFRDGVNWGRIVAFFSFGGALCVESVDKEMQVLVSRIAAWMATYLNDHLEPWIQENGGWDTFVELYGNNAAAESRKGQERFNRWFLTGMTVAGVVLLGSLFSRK
Procedure, shortened: as §1

[3] = ratio of TR-FRET Ki values, Bcl-XL over Bcl-2
[4] = GST-Bcl-XL, F-Bak peptide probe

GST-Bcl-2, sequence (P10415 whole entry): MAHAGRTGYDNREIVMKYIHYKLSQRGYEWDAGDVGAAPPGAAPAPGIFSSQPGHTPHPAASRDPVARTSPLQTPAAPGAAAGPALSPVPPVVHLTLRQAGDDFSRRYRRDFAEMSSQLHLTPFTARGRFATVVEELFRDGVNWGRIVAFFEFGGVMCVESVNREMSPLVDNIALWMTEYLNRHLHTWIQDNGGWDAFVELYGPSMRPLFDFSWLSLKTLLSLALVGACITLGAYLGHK

For `CN1CCC(Nc2ccc(S(=O)(=O)NC(=O)c3ccc(N4CCN(CC5=C(c6ccc(Cl)cc6)CC(C)(C)CC5)CC4)cc3Oc3cccc4[nH]cnc34)cc2[N+](=O)[O-])CC1` [Example 418, 2-(1H-benzimidazol-4-yloxy)-4-(4-{[2-(4-chlorophenyl)-4,4-dimethylcyclohex-1-en-1-yl]methyl}piperazin-1-yl)-N-({4-[(1-methylpiperidin-4-yl)amino]-3-nitrophenyl}sulfonyl)benzamide], the Ki ([1]; GST-Bcl-2, F-Bak peptide probe) was 0.004 nM, the “Binding selectivity ratio (Bcl-XL Ki/Bcl-2 Ki)” value (shortened to “Binding selectivity ratio”) [1, 3] was 404.7 and the Ki [2, 4] was 1.57 nM.
Compound `CN(C)CCCCNc1ccc(S(=O)(=O)NC(=O)c2ccc(N3CCN(Cc4ccccc4-c4ccc(Cl)cc4)CC3)cc2Oc2ccccc2)cc1[N+](=O)[O-]` [Example 156, 4-{4-[(4′-chloro-1,1′-biphenyl-2-yl)methyl]piperazin-1-yl}-N-[(4-{[4-(dimethylamino)butyl]amino}-3-nitrophenyl)sulfonyl]-2-phenoxybenzamide] has a Ki ([1]; GST-Bcl-2, F-Bak peptide probe) of 0.116 nM and a Ki [2, 4] of 6.16 nM.
Compound `CN(C)CCCNc1ccc(S(=O)(=O)NC(=O)c2ccc(N3CCN(Cc4ccccc4-c4ccc(Cl)cc4)CC3)cc2Oc2ccccc2)cc1C(F)(F)F` [Example 92, 4-{4-[(4′-chloro-1,1′-biphenyl-2-yl)methyl]piperazin-1-yl}-N-{[4-{[3-(dimethylamino)propyl]amino}-3-(trifluoromethyl)phenyl]sulfonyl}-2-phenoxybenzamide] has a Ki ([1]; GST-Bcl-2, F-Bak peptide probe) of 4.38 nM and a Ki [2, 4] of 349 nM.
`CC1(C)CCC(CN2CCN(c3ccc(C(=O)NS(=O)(=O)c4cnc(O[C@@H]5CCN(C(CF)CF)C5)c(Cl)c4)c(Oc4cccc5[nH]ncc45)c3)CC2)=C(c2ccc(Cl)cc2)C1` [Example 434, N-{[5-chloro-6-({(3R)-1-[2-fluoro-1-(fluoromethyl)ethyl]pyrrolidin-3-yl}oxy)pyridin-3-yl]sulfonyl}-4-(4-{[2-(4-chlorophenyl)-4,4-dimethylcyclohex-1-en-1-yl]methyl}piperazin-1-yl)-2-(1H-indazol-4-yloxy)benzamide] was tested, and the Ki ([1]; GST-Bcl-2, F-Bak peptide probe) was 0.052 nM, the “Binding selectivity ratio” value [1, 3] was 1459.4 and the Ki [2, 4] was 75.5 nM.
`CC1(C)CCC(CN2CCN(c3ccc(C(=O)NS(=O)(=O)c4ccc(NCC5CN(CC#N)CCO5)c([N+](=O)[O-])c4)c(Oc4cccc5[nH]cnc45)c3)CC2)=C(c2ccc(Cl)cc2)C1` (stereo not drawn) [Example 431, 2-(1H-benzimidazol-4-yloxy)-4-(4-{[2-(4-chlorophenyl)-4,4-dimethylcyclohex-1-en-1-yl]methyl}piperazin-1-yl)-N-{[4-({[4-(cyanomethyl)morpholin-2-yl]methyl}amino)-3-nitrophenyl]sulfonyl}benzamide] was tested, and the Ki ([1]; GST-Bcl-2, F-Bak peptide probe) was < 0.01 nM, the “Binding selectivity ratio” value [1, 3] was 677.4 and the Ki [2, 4] was 6.77 nM.
For `CC1(O)CCC(COc2ncc(S(=O)(=O)NC(=O)c3ccc(N4CCN(CC5=C(c6ccc(Cl)cc6)CCC(F)(F)C5)CC4)cc3Oc3cccc4[nH]ncc34)cc2Cl)CC1` (stereo not drawn) [Example 531, N-({5-chloro-6-[(trans-4-hydroxy-4-methylcyclohexyl)methoxy]pyridin-3-yl}sulfonyl)-4-(4-{[2-(4-chlorophenyl)-5,5-difluorocyclohex-1-en-1-yl]methyl}piperazin-1-yl)-2-(1H-indazol-4-yloxy)benzamide], the Ki [1] was < 0.01 nM, the “Binding selectivity ratio” value ([1]; TR-FRET, Bcl-XL Ki divided by Bcl-2 Ki) was >1257.8 and the Ki [2] was 12.6 nM.
Work on `CO[C@H]1CC[C@H](COc2ncc(S(=O)(=O)NC(=O)c3ccc(N4CCN(CC5=C(c6ccc(Cl)cc6)CC(C)(C)CC5)CC4)cc3Oc3cccc4[nH]ncc34)cc2Cl)CC1` [Example 414, Trans-N-({5-chloro-6-[(4-methoxycyclohexyl)methoxy]pyridin-3-yl}sulfonyl)-4-(4-{[2-(4-chlorophenyl)-4,4-dimethylcyclohex-1-en-1-yl]methyl}piperazin-1-yl)-2-(1H-indazol-4-yloxy)benzamide] yielded a Ki ([1]; GST-Bcl-2, F-Bak peptide probe) of 0.007 nM and a Ki [2, 4] of 95.6 nM.
